What follows are compounds tested against Btk (Homo sapiens, UniProt Q06187) (assay: Btk TR-FRET kinase inhibition assay). Details: pH 7.4, ATP at the Km for the kinase, 1 μM peptide substrate, [Btk]total=0.5 nM, read-out: Btk-TRFRET (Ki).
Type: biochemical
Experimental: Suitable in vitro assays for measuring kinase activity and the inhibition thereof by compounds are known (e.g., see Kuzmic et al. Anal. Biochem. 2000, 286, 45-50).
The following protocol represents an assay for determination of inhibition of kinases under physiological conditions (pH 7.4). Kinase activity was determined using a time-resolved fluorescence resonance energy transfer (TR-FRET) methodology. Measurements were performed in a reaction volume of 50 μL using 96-well assay plates. Kinase enzyme, inhibitor, ATP (at the Km for the kinase), and 1 μM peptide substrate (Biotin-AVLESEEELYSSARQ-NH2) were incubated in a reaction buffer composed of 20 mM Tris, 50 mM NaCl, MgCl2 (5-25 mM depending on the kinase), 1 mM DTT, 0.1 mM EDTA, 0.01% bovine serum albumin, 0.005% Tween-20, and 10% DMSO at pH 7.4 for one hour. The reaction was quenched by the addition of 1.2 equivalents of EDTA (relative to Mg^2+) in 25 μL of 1× Lance buffer (Perkin-Elmer). Streptavidin-APC (Perkin-Elmer) and Eu-labeled p-Tyr100 antibody (Perkin-Elmer) in 1× Lance buffer were added in a 25 μL volume to give final concentrations of 100 nM and 2.5 nM, respectively, and the mixture was allowed to incubate for one hour. The TR-FRET signal was measured on a multimode plate reader with an excitation wavelength of 330 nm and detection wavelengths of 615 nm and 665 nm. Activity was determined by the ratio of the fluorescence at 665 nm to that at 615 nm. For each compound, enzyme activity was measured at various concentrations of compound. Negative control reactions were performed in the absence of inhibitor in replicates of six, and two no-enzyme controls were used to determine baseline fluorescence levels. Inhibition constants were obtained using the program BatchKi (Kuzmic et al. Anal. Biochem. 2000, 286, 45-50). IC50s were obtained according to this equation: IC50={Ki(app)/(1+[ATP]/Km^ATP)}+[E]total/2; for all kinases, [ATP]=Km^ATP, [Btk]total=0.5 nM and [Lck]total=6 nM.

Btk, sequence (Q06187 whole entry): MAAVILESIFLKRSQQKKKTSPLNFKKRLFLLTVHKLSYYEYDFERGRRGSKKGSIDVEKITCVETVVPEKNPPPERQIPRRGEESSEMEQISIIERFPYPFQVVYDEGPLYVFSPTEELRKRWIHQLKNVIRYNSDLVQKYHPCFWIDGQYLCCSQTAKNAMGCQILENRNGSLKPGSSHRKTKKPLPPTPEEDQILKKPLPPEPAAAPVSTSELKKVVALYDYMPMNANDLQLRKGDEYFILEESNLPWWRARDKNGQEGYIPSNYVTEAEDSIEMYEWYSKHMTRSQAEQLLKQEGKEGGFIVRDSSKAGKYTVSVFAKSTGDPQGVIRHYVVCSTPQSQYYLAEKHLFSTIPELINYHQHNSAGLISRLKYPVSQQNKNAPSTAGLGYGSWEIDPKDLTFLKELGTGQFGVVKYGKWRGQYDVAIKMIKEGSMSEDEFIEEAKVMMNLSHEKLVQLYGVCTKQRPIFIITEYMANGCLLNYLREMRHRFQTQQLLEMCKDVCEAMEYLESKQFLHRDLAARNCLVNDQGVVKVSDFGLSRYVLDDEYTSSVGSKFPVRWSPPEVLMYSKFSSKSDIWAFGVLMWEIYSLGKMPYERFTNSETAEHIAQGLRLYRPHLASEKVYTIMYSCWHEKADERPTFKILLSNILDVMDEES

Row | Ki | SMILES
1 | < 100 nM | Cc1cc(F)ccc1Nc1nc2ccc3c(C)c(C=CCN4CCN(c5ccccc5)CC4)[nH]c(=O)c3c2n1C [Compound 19, 2-(4-fluoro-2-methylphenylamino)-1,6-dimethyl-7-[3-(N-phenylpiperazin-1-yl)-propenyl]-1,8-dihydro-imidazo[4,5-h]isoquinolin-9-one]
2 | < 100 nM | CC(=O)N1CCN(CC=Cc2[nH]c(=O)c3c(ccc4nc(Nc5ccc(F)cc5C)n(C)c43)c2C)CC1 [Compound 21, 2-(4-fluoro-2-methylphenylamino)-1,6-dimethyl-7-[3-(N-methylcarbonylpiperazin-1-yl)-propenyl]-1,8-dihydro-imidazo[4,5-h]isoquinolin-9-one]
3 | < 100 nM | Cc1c(C=CS(=O)(=O)c2ccccc2)[nH]c(=O)c2c1ccc1nc(Nc3c(Cl)cccc3Cl)n(C)c12 [Compound 37, 2-(2,6-dichlorophenylamino)-1,6-dimethyl-7-[2-(phenylsulfonyl)-ethenyl]-1,8-dihydro-imidazo[4,5-h]isoquinolin-9-one]
4 | < 100 nM | Cc1c(C=CCN2CCP(C)(=O)CC2)[nH]c(=O)c2c1ccc1nc(Nc3c(Cl)cccc3Cl)n(C)c12 [Compound 2, 2-(2,6-dichloro-phenylamino)-1,6-dimethyl-7-[3-(4-methyl-4-oxo-4λ^5[1,4]azaphosphinan-1-yl)-propenyl]-1,8-dihydro-imidazo[4,5-h]isoquinolin-9-one]
5 | < 100 nM | Cc1cc(F)ccc1Nc1nc2ccc3c(C)c(C=CCN4CCN(c5ccc(Cl)cc5)CC4)[nH]c(=O)c3c2n1C [Compound 20, 2-(4-fluoro-2-methylphenylamino)-1,6-dimethyl-7-[3-(N-(4-chlorophenyl)-piperazin-1-yl)-propenyl]-1,8-dihydro-imidazo[4,5-h]isoquinolin-9-one]
6 | < 100 nM | Cc1cc(F)ccc1Nc1nc2ccc3c(C)c(/C=C/CN4CCN(S(C)(=O)=O)CC4)[nH]c(=O)c3c2n1C [Compound 24, 2-(4-fluoro-2-methylphenylamino)-1,6-dimethyl-7-[3-(N-methylsulfonylpiperazin-1-yl)-propenyl]-1,8-dihydro-imidazo[4,5-h]isoquinolin-9-one]
7 | < 100 nM | Cc1c(C=CCN2CCN(c3ccccc3)CC2)[nH]c(=O)c2c1ccc1nc(Nc3c(Cl)cccc3Cl)n(C)c12 [Compound 18, 2-(2,6-dichlorophenylamino)-1,6-dimethyl-7-[3-(N-phenylpiperazin-1-yl)-propenyl]-1,8-dihydro-imidazo[4,5-h]isoquinolin-9-one]
8 | < 100 nM | Cc1cc(F)ccc1Nc1nc2ccc3c(C)c(C=CCN4CCN(C(=O)OC(C)(C)C)CC4)[nH]c(=O)c3c2n1C [Compound 31, 2-(4-fluoro-2-methylphenylamino)-1,6-dimethyl-7-[3-(N-tert-butyloxycarbonylpiperazin-1-yl)-propenyl]-1,8-dihydro-imidazo[4,5-h]isoquinolin-9-one]
9 | < 100 nM | C#CCN(C)CC=Cc1[nH]c(=O)c2c(ccc3nc(Nc4c(Cl)cccc4Cl)n(C)c32)c1C [Compound 42, 2-(2,6-dichlorophenylamino)-1,6-dimethyl-7-[3-(N-methyl-N-(prop-2-ynyl)amino)prop-1-enyl]-1,8-dihydro-imidazo[4,5-h]isoquinolin-9-one]
10 | < 100 nM | Cc1cc(F)ccc1Nc1nc2ccc3c(C)c(C=CCN4CCN(S(=O)(=O)C(C)C)CC4)[nH]c(=O)c3c2n1C [Compound 34, 2-(4-fluoro-2-methylphenylamino)-1,6-dimethyl-7-[3-(N-(isopropylsulfonyl)-piperazin-1-yl)-propenyl]-1,8-dihydro-imidazo[4,5-h]isoquinolin-9-one]
11 | < 100 nM | Cc1cc(F)ccc1Nc1nc2ccc3c(C)c(C=CCN4CCP(=O)(c5ccc(F)cc5)CC4)[nH]c(=O)c3c2n1C [Compound 10, 2-(4-fluoro-2-methylphenylamino)-1,6-dimethyl-7-[3-(4-oxo-4-(4-fluorophenyl)-4λ^5-[1,4]azaphosphinan-1-yl)-propenyl]-1,8-dihydro-imidazo[4,5-h]isoquinolin-9-one]
12 | < 100 nM | Cc1cc(F)ccc1Nc1nc2ccc3c(C)c(/C=C/CN4CCP(=O)(Cc5ccc(F)cc5)CC4)[nH]c(=O)c3c2n1C [Compound 12, 2-(4-fluoro-2-methylphenylamino)-1,6-dimethyl-7-{3-[4-(4-fluorophenylmethyl)-4-oxo-4λ^5-[1,4]azaphosphinan-1-yl]-propenyl}-1,8-dihydro-imidazo[4,5-h]isoquinolin-9-one]

Continued, compound first:

Row | SMILES | Ki
13 | CCC[C@@H](C=CS(=O)(=O)c1ccccc1)NC(=O)Cc1c(C)[nH]c(=O)c2c1ccc1nc(Nc3ccc(F)cc3C)n(C)c12 [Compound 51, (S)-2-(4-fluoro-2-methylphenylamino)-1,7-dimethyl-6-{N-[1-(phenylsulfonyl)hex-1-en-3-yl]-amino-2-oxoethyl}-1,8-dihydro-imidazo[4,5-h]isoquinolin-9-one] | 100 to 1000 nM
14 | Cc1c(C=NNC(=O)c2ccc(N(C)C)cc2)[nH]c(=O)c2c1ccc1nc(Nc3c(Cl)cccc3Cl)n(C)c12 [Compound 46, 4-(N,N-dimethylamino)-benzoic acid [2-(2,6-dichlorophenylamino)-1,6-dimethyl-9-oxo-8,9-dihydro-1H-imidazo[4,5-h]isoquinolin-7-ylmethylene]-hydrazide] | > 1000 nM
15 | Cc1c(C=NNC(=O)c2ccccc2)[nH]c(=O)c2c1ccc1nc(Nc3c(Cl)cccc3Cl)n(C)c12 [Compound 45, benzoic acid [2-(2,6-dichlorophenylamino)-1,6-dimethyl-9-oxo-8,9-dihydro-1H-imidazo[4,5-h]isoquinolin-7-ylmethylene]-hydrazide] | 100 to 1000 nM
16 | Cc1cc(Cl)cc(Cl)c1Nc1nc2ccc3c(C)c(CCCN4CCP(=O)(c5ccccc5)CC4)[nH]c(=O)c3c2n1C [Compound 8, 2-(2,4-dichloro-6-methylphenylamino)-1,6-dimethyl-7-[3-(4-oxo-4-phenyl-4λ^5-[1,4]azaphosphinan-1-yl)-propyl]-1,8-dihydro-imidazo[4,5-h]isoquinolin-9-one] | 100 to 1000 nM
17 | Cc1cc(F)ccc1Nc1nc2ccc3c(C)c(C=CCN4CCN(c5ncccn5)CC4)[nH]c(=O)c3c2n1C [Compound 27, 2-(4-fluoro-2-methylphenylamino)-1,6-dimethyl-7-[3-(N-(pyrimidin-2-yl)-piperazin-1-yl)-propenyl]-1,8-dihydro-imidazo[4,5-h]isoquinolin-9-one] | < 100 nM
18 | Cc1cc(F)ccc1Nc1nc2ccc3c(C)c(C=CCN4CCN(S(=O)(=O)c5ccccc5)CC4)[nH]c(=O)c3c2n1C [Compound 29, 2-(4-fluoro-2-methylphenylamino)-1,6-dimethyl-7-[3-(N-phenylsulfonylpiperazin-1-yl)-propenyl]-1,8-dihydro-imidazo[4,5-h]isoquinolin-9-one] | < 100 nM
19 | Cc1c(C(O)C#Cc2ccccc2)[nH]c(=O)c2c1ccc1nc(Nc3c(Cl)cccc3Cl)n(C)c12 (centres unmarked) [Compound 41, 2-(2,6-dichlorophenylamino)-1,6-dimethyl-7-(1-hydroxy-3-phenylprop-2-yn-1-yl)-1,8-dihydro-imidazo[4,5-h]isoquinolin-9-one] | 100 to 1000 nM
20 | Cc1ccc(F)cc1Nc1nc2ccc3c(C)c(C=CC(=O)N4CCP(=O)(c5ccccc5)CC4)[nH]c(=O)c3c2n1C [Compound 7, 2-(3-fluoro-6-methylphenylamino)-1,6-dimethyl-7-{2-[(4-oxo-4-phenyl-4λ^5-[1,4]azaphosphinan-1-yl)-carbonyl]ethenyl}-1,8-dihydro-imidazo[4,5-h]isoquinolin-9-one] | 100 to 1000 nM
